We go through 1 compound from patent publication US6303596A, “Use of taurolidine for treatment of leukemias” (priority 2000, dated 2001).

The structures appear in SMILES notation.

The test system of one data set is epithelial cells. To be noted: 5 mg/ml taurolidine, two hours; cited from earlier work.
Data set [1] in a line: propidium iodide flow cytometry, PBMC all cells, whole blood. The class given is cell-based. To be noted: human, mean ± SD of 2 experiments. As for the experimental part:
FIGS. 15A, 15B, and 15C depict TUNEL analysis of PBMC treated with taurolidine in whole blood, for control cells, taurolidine-treated cells, and anisomycin-treated cells, respectively . Cells were incubated with 500 μg/ml taurolidine for 4 hours, resuspended in fresh medium, incubated for two hours further and processed for TUNEL analysis. Parallel samples were stained with FITC-conjugated anti-CD14 and PI as described herein. Ten thousand events were recorded per sample. TUNEL signal (x -axis) is a measure of DNA fragmentation, while FSC (y-axis) is related to cell size. TUNEL-negative lymphocytes are bounded by rectangle R 1, while TUNEL-negative monocytes (CD 14 positive cells) are bounded by rectangle R2. […]
In the second method, DNA fragmentation was detected via TUNEL assay according to the manufacturer's instructions. With this methodology, 2×10^6 cells were fixed with 2% paraformaldehyde, permeabilized with 0.1% Triton X-100/0.1% citrate, incubated at 37° C. with terminal deoxynucleotidyl transferase and FITC-dUTP, rinsed and analyzed by flow cytometry. […] Parallel aliquots of unfixed cells were treated with PI and FITC-conjugated anti-CD14 and analyzed by flow cytometry, in order to identify cells with permeable cell membranes (since PI binds to DNA but is excluded from cells with intact plasma membranes) and also to determine the cell-specificity of the apoptotic signal. […]
For orientation: A flow cytometer gives signals particle by particle.

The test system of another data set is K562 cells. Nature of the data set: trypan blue exclusion, K562. The class given is cell-based, human. The note with it: K562, 25 μg/ml taurolidine. On the procedure: FIGS. 6A and 6B depict cell viability and growth rates for K562 cell line following taurolidine treatment, in terms of % trypan blue negative cells and % cell number, respectively. Cells were treated with various concentrations of taurolidine for 4 hours in AIM-V+0.01% BCS. After aliquots were collected for LDH assay, the remainder of the culture was rinsed in HBSS and resuspended in RPMI+10% BCS without taurolidine. Counts of trypan blue-negative cells (FIG. 6A), and total cell number (FIG. 6B), were recorded daily thereafter (with the measurement at Day 1 being made immediately after the 4 hour taurolidine treatment). […] Doubling times were determined under each condition, and expressed as a percentage of the rate of doubling of untreated cells. […]
In these experiments, integrity of cell membranes following taurolidine treatment was assessed by exclusion of trypan blue and by measuring the release of LDH in MM6, K-562, HL-60, and REH cells. […] A parallel aliquot of cells was lysed by three cycles of freeze/thaw and the quantity of LDH released was taken to be 100%. […]
HL-60 cells treated with 50 μl taurolidine. In these samples, LDH present in the culture medium was 8.3±2.3% of that released by completely lysed cells, compared with 2.3±0.8% measured in control cultures. […]

The test system of the next data set is all other cell lines. Nature of the data set: LDH release (cell membrane integrity), all other cell lines. The class given is cell-based, human. The note with it: all samples from all other cell lines (n=3); 240 min. As for the experimental part:
(§1) In these experiments, integrity of cell membranes following taurolidine treatment was assessed by exclusion of trypan blue and by measuring the release of LDH in MM6, K-562, HL-60, and REH cells. Since BCS contains significant amounts of LDH, these experiments were conducted on cells cultured in AIM-V+0.01% BCS. Four hour treatment of cells was conducted in AIM-V containing 0.01% BCS in order to allow subsequent LDH assay without interference from BCS (which occurs in when normal culture medium, containing 10% BCS, is used). Thus, MM6 cells (5×10^5 cells/ml) were treated with taurolidine for four hours in AIM-V+0.01% BCS, after which an aliquot of the cell suspension was removed for measurement of LDH release. A parallel aliquot of cells was lysed by three cycles of freeze/thaw and the quantity of LDH released was taken to be 100%. Remaining cells were rinsed in HBSS and resuspended in growth medium for measurement of growth rates.
HL-60 cells treated with 50 μl taurolidine. In these samples, LDH present in the culture medium was 8.3±2.3% of that released by completely lysed cells, compared with 2.3±0.8% measured in control cultures. […] After 4 hour treatment, cells were rinsed and returned to growth medium and monitored for viability and growth over the following 3 days. […]
(In general: LDH leaks from cells whose membrane has failed.)

The subject of another data set is MM6 cells. Nature of the data set: DNA fragmentation, agarose gel electrophoresis, MM6. The format is cell-based, human. As for the experimental part: FIG. 13 is an agarose gel depicting DNA fragmentation in response to taurolidine treatment as determined by assay procedures. MM6 cells were incubated with taurolidine or vehicle in RPMI+10% BCS for four hours. Cells were harvested and low molecular weight DNA extracted as described below. C=control cells without taurolidine or vehicle treatment; T=treated with 50 μg/ml taurolidine; V=treated with vehicle alone; and MW=molecular weight markers.
Following treatment with either taurolidine or the vehicle solution, cell death was assessed in one of two ways. In the first method, the DNA fragmentation pattern characteristic of apoptosis was detected by extracting low molecular weight DNA from cells using a phosphate-citrate buffer (Darzynkiewicz, et al., "Assays of cell viability: discrimination of cells dying by apoptosis," Methods Cell Biol 41:15 (1994)) and subjecting the extracted DNA to agarose gel electrophoresis.
Apoptosis is associated with fragmentation of genomic DNA in the internucleosomal linker regions, which can be visualized as a characteristic ladder of DNA fragments upon gel electrophoresis. Arends, M. J. and Wyllie, A. H., "Apoptosis: mechanisms and roles in pathology," Int Rev Exp Path 32:223 (1991). Accordingly, low molecular weight DNA was extracted from taurolidine-treated MM6 cells and subjected to electrophoresis in agarose gels.

For a further data set, the system named is K-562. Nature of the data set: growth rate after taurolidine treatment, K-562. The class given is cell-based, human. As for the experimental part:
FIGS. 6A and 6B depict cell viability and growth rates for K562 cell line following taurolidine treatment, in terms of % trypan blue negative cells and % cell number, respectively. Cells were treated with various concentrations of taurolidine for 4 hours in AIM-V+0.01% BCS. After aliquots were collected for LDH assay, the remainder of the culture was rinsed in HBSS and resuspended in RPMI+10% BCS without taurolidine. Counts of trypan blue-negative cells (FIG. 6A), and total cell number (FIG. 6B), were recorded daily thereafter (with the measurement at Day 1 being made immediately after the 4 hour taurolidine treatment). Conditions were: no treatment (open circles); 25 μg/ml taurolidine (closed circles); 50 μg/ml taurolidine (open squares); 100 μg/ml taurolidine (closed squares); and vehicle alone (closed triangles). Doubling times were determined under each condition, and expressed as a percentage of the rate of doubling of untreated cells. These values are located to the right of the growth curves in (FIG. 6B). Cells were subcultured when they reached a concentration of 6×10^5 cells/ml. Data are mean±SEM of three experiments.
as §1
HL-60 cells treated with 50 μl taurolidine. In these samples, LDH present in the culture medium was 8.3±2.3% of that released by completely lysed cells, compared with 2.3±0.8% measured in control cultures. […] After 4 hour treatment, cells were rinsed and returned to growth medium and monitored for viability and growth over the following 3 days. Concentrations of taurolidine from 25 μg/ml to 100 μ/ml were used in order to highlight differences in sensitivity of cell lines to taurolidine.
^b Growth rate was measured over three days following treatment.

Consider `O=S1(=O)CCN(CN2CCS(=O)(=O)NC2)CN1` [taurolidine, 4,4'-methylenebis(perhydro-1,2,4-thiadiazin 1,1-dioxide)], for which the “toxic effects on epithelial cells” value in the data set with epithelial cells was “No toxic effects”. In addition, the cytotoxicity at 6 h was 1.6 ± 0.6% in data set [1] (200 μg/ml) and 1.4 ± 0.2% in data set [1] (500 μg/ml). Further, the “trypan blue staining after treatment” value with K562 cells is on record as “did not show an increase in trypan blue staining”. Also, the “LDH levels, % of lysed cell samples” value in the data set with all other cell lines was at most 7%. The DNA fragmentation ladder result in the data set on MM6 cells (MM6, 50 μg/ml taurolidine, 4 h, no LPS) was “prominent ladder pattern of DNA fragments”; in the data set on MM6 cells (MM6, LPS present during taurolidine treatment), “identical results”. In the data set on K-562 (Homo sapiens, K562, 72 h, K-562, 50 μg/ml for 4 h, growth over three days, read-out: growth rate (% of control)), the activity at 50 µg/mL was 52%. Also, the activity at 100 µg/mL in the data set with K-562 (Homo sapiens, K562, 72 h, K-562, 100 μg/ml for 4 h, growth over three days, read-out: growth rate (% of control)) was 0%. In addition, in the data set on K-562 (K562), the “sensitivity of cell growth among cell lines” value is given as “least affected”. In addition, the “growth after taurolidine treatment” value with K-562 (K562, 50 μg/ml or greater) was “inhibition of growth”.
